This note sets out measurements from article PMC7175277, “Hydroxylamine Analogue of Agmatine: Magic Bullet for Arginine Decarboxylase” (Biomolecules, 2020).

Entries after “also recorded” stand apart in the source; their conditions may differ.

Holding throughout (type): biochemical
The target in assay [1] is T1, E. coli ADC (Escherichia coli, UniProt P21170).
T1 construct: The kinetic parameters determined for the partially purified biosynthetic ADC from E. coli; endogenous in cells; host or cells: E. coli DH5α (39-53% ammonium sulphate fraction of the lysate, desalted)
T1 sequence (P21170 1-658): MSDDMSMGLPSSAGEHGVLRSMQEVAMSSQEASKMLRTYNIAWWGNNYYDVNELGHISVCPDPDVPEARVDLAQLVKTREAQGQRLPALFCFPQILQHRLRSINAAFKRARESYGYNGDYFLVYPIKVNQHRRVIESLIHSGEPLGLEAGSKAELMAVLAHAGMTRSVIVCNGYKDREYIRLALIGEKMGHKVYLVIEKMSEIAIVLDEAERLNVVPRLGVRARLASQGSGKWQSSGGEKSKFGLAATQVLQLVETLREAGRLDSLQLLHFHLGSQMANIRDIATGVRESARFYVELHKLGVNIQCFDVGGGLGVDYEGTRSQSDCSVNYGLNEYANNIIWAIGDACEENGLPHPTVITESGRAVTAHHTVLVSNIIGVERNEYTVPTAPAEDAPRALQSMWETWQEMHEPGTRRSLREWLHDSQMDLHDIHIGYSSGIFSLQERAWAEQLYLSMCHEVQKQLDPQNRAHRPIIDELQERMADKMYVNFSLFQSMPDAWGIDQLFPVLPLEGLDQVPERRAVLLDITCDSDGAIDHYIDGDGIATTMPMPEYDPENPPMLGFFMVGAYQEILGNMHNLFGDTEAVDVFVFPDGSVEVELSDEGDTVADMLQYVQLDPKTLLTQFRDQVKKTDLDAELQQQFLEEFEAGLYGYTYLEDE
Description: E. coli ADC activity assay (HPLC of agmatine). Conditions: for inhibition at 0.1 µM: AO-Agm 100 nM; for inhibition at 0.1 µM / inhibition at 0.5 µM: no preincubation; for inhibition at 0.5 µM: AO-Agm 500 nM. As for the experimental part:
(§1) The purification was performed using a modified procedure of earlier publication. E. coli strain DH5α was grown in Luria-Bertani broth at +37 °C with shaking (200 rpm) overnight. The cells were collected by centrifugation and the pellet was homogenized with Potter-Elvehjem in 10 volumes (w/v) of ice-cold 50 mM Tris-HCl pH 7.4, 1 mM DTT. The cell debris was removed by centrifugation at 12,000 g for 30 min at +4 °C. Solid (NH4)2SO4 was added to the supernatant, and the pellet precipitating between 39% and 53% saturation was separated. The precipitate was resuspended in ice-cold buffer containing 50 mM Tris-HCl pH 7.4 and 1 mM DTT and desalted by passage through Sephadex G-25 column (NAP-10 column, GE Healthcare). The protein concentration was measured with Bio-Rad protein reagent, and the partially purified enzyme preparation was mixed with 20% glycerol and aliquoted for storage at −80 °C.
[…] The ODC reaction mixture contained 50 mM Tris-HCl pH 7.8, 1 mM EDTA, 2.4 mM DTT, 0.1 mM PLP and 20 μg of partially purified enzyme preparation. The mixtures were either preincubated or not preincubated for 15 min at +40 °C in the presence of the inhibitor, after which the reaction was started by the addition of 18 μL of 10× substrate (L-Arg for ADC and L-Orn for ODC). After incubation for 30 min (ADC) or 20 min (ODC) at +40 °C, 20 μL of 50% sulphosalicylic acid containing 50 μM diaminoheptane (internal standard) was added and the samples were analyzed for the content of agmatine (ADC) and Put (ODC) with HPLC as described previously. The kinetic parameters and IC50 values were determined with the aid of GraphPad Prism version 5.03 using nonlinear regression analysis.

For assay [2], the target named is T2, mouse kidney ODC (Mus musculus, UniProt P00860).
T2 construct: from tissue; host or cells: C57Bl/6J male mouse kidney, 12,000 g supernatant of the homogenate
T2 sequence (P00860 1-461): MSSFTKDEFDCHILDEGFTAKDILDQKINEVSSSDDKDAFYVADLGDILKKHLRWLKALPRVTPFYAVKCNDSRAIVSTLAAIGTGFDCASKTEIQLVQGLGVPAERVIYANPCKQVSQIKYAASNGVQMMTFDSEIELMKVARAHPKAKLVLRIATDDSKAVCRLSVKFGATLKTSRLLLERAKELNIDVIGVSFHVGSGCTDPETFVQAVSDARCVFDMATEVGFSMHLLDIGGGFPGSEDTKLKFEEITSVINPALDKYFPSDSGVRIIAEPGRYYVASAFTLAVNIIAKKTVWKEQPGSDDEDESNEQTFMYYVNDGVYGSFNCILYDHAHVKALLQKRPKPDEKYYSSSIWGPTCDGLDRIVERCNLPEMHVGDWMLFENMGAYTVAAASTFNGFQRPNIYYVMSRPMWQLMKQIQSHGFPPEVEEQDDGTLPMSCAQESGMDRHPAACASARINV
Description: Assay of mouse kidney ODC activity. Conditions: 0.4 mM L-Orn; 0.4 mM PLP. As for the experimental part:
C57Bl/6J male mouse kidney was homogenized with TissueLyzer (Qiagen) to 2 volumes of buffer containing 50 mM Tris-HCl pH 7.4, 1 mM DTT, 1 mM EDTA, 0.1% Triton X-100 and 1× Complete EDTA-free protease inhibitor cocktail (Roche) and centrifuged at 12,000 g for 30 min at +4 °C. Aliquots of the supernatant were mixed with 1–5000 μM of AO-Agm and the ODC assay was carried out as previously described. The reaction mixture contained 0.4 mM PLP and 0.4 mM L-Orn.

For assay [3], the target named is E. coli ODC (Escherichia coli, UniProt P21169). Description: E. coli ODC activity assay (HPLC of Put). As for the experimental part: as §1
The ADC reaction mixture contained 50 mM Tris-HCl pH 7.8, 4 mM MgCl2, 1 mM DTT, 1.0 or 0.1 mM PLP and 20 μg of partially purified enzyme preparation in a total volume of 162 μL. The ODC reaction mixture contained 50 mM Tris-HCl pH 7.8, 1 mM EDTA, 2.4 mM DTT, 0.1 mM PLP and 20 μg of partially purified enzyme preparation. […] After incubation for 30 min (ADC) or 20 min (ODC) at +40 °C, 20 μL of 50% sulphosalicylic acid containing 50 μM diaminoheptane (internal standard) was added and the samples were analyzed for the content of agmatine (ADC) and Put (ODC) with HPLC as described previously. The kinetic parameters and IC50 values were determined with the aid of GraphPad Prism version 5.03 using nonlinear regression analysis.

Setting [4] is: 0.1 mM PLP, 15 min preincubation, 0.15 mM L-Arg.

Chain of E. coli ODC (P21169 whole entry): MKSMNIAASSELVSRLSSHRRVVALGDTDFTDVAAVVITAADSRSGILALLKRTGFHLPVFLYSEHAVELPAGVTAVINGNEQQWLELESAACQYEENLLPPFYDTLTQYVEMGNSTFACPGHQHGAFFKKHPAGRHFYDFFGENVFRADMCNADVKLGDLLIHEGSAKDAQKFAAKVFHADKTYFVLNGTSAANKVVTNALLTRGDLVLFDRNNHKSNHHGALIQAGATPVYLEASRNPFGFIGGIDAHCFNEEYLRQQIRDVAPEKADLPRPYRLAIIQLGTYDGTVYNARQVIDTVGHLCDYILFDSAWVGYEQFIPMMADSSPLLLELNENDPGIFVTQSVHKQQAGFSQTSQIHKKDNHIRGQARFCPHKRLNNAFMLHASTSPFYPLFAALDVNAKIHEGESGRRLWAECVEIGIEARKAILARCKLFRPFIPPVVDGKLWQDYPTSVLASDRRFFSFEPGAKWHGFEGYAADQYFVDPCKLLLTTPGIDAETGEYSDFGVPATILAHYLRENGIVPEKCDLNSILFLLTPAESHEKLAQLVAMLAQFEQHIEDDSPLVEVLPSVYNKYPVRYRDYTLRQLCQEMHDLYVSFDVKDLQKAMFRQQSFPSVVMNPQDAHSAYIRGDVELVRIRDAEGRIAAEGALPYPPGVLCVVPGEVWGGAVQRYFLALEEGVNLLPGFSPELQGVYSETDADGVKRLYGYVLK

In general, IC50 refers to the concentration needed to halve the response being measured. A lower IC50 goes with inhibition by little substance. For orientation: inhibition means the change of the read-out against control, counted positive when it falls. Read a low inhibition as a response near the control. In the case of `N=C(N)NCCCON` [AO-Agm, 1-aminooxy-3-guanidinopropane], the concentration for half-maximal inhibition (IC50) in assay [1] (0.01 mM PLP, 15 min preincubation, 0.15 mM L-Arg) was 0.026 ± 0.001 µM; in assay [1] (setting [4]), 0.03 ± 0.001 µM; in assay [1] (1 mM PLP, 15 min preincubation, 0.15 mM L-Arg), 0.089 ± 0.001 µM; in assay [2], 5.3 ± 0.7 µM. Also, in assay [1] (0.1 mM PLP, 0.15 mM L-Arg), the “Effect of omitting the preincubation time on the efficiency of ADC inhibition” value is reported as “did not significantly alter”. For the same molecule, the “Potency as ADC inhibitor relative to DFMA (more potent)” value in assay [1] (setting [4]) turned out to be 330 times. For the same molecule, the inhibition at 0.1 µM in assay [1] (0.15 mM L-Arg, 0.1 mM PLP) was 25%; in assay [1] (1.5 mM L-Arg, 0.1 mM PLP), roughly 5%. Moreover, the inhibition at 0.5 µM in assay [1] (0.15 mM L-Arg, 0.1 mM PLP) stood at 95%; in assay [1] (1.5 mM L-Arg, 0.1 mM PLP), 60%. Besides, the “Potency towards E. coli ODC relative to E. coli ADC” value in assay [3] is recorded as “almost two orders of magnitude less potent; also recorded: almost two orders of magnitude less efficient”.
